Laboratory results as given in US20220096516A1, “OLIGONUCLEOTIDE MOLECULE AND APPLICATION THEREOF IN TUMOR THERAPY” (Ractigen Therapeutics, priority 2019, published 2022).
d = 2'-deoxy (DNA); r = 2'-OH (RNA)

Tested on: LHPP gene
Assay: High-throughput screening of saRNAs targeting LHPP promoter: LHPP mRNA by one-step RT-qPCR in Huh7 cells
Format: cell-based, human
Conditions: 10 nM saRNA, 72 hours, relative to control (Mock)
Procedure, shortened: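 LHPP transcript level relative to mock, normalised to the geometric mean of the HPRT1 and TBP reference genes, measured by one-step RT-qPCR on crude lysates. Huh7 cells had been RNAiMax-transfected with each saRNA at 10 nM for 72 h.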

Substance | Fold of changes in relative LHPP mRNA expression level [fold] | Fold of changes in relative LHPP mRNA expression level (log2)
RAG7-828: saRNA duplex; sense UGAGGAAACUCCUCCCUUUTT (SEQ ID NO: 108), antisense AAAGGGAGGAGUUUCCUCATT (SEQ ID NO: 272) (sugars from the 5' end r19 d2, backbone not given here) | 1.20 | 0.26
RAG7-181: saRNA duplex; sense CUCAAUUUGCCUUUGACCUTT (SEQ ID NO: 97), antisense AGGUCAAAGGCAAAUUGAGTT (SEQ ID NO: 261) (sugars from the 5' end r19 d2, backbone not given here) | 1.22 | 0.29
RAG7-184: saRNA duplex; sense UGUCUCAAUUUGCCUUUGATT (SEQ ID NO: 16), antisense UCAAAGGCAAAUUGAGACATT (SEQ ID NO: 180) (sugars from the 5' end r19 d2, backbone not given here) | 1.59 | 0.67
RAG7-109: saRNA duplex; sense GAAGAAAGCUUCCGAAAAGTT (SEQ ID NO: 90), antisense CUUUUCGGAAGCUUUCUUCTT (SEQ ID NO: 254) (sugars from the 5' end r19 d2, backbone not given here) | 1.24 | 0.31
RAG7-114: saRNA duplex; sense CCUGGGAAGAAAGCUUCCGTT (SEQ ID NO: 73), antisense CGGAAGCUUUCUUCCCAGGTT (SEQ ID NO: 237) (sugars from the 5' end r19 d2, backbone not given here) | 1.28 | 0.36
RAG7-889: saRNA duplex; sense UGGACCAGAAGUAAAGUGUTT (SEQ ID NO: 115), antisense ACACUUUACUUCUGGUCCATT (SEQ ID NO: 279) (sugars from the 5' end r19 d2, backbone not given here) | 1.19 | 0.25
RAG7-92: saRNA duplex; sense AGGACACCGUUUCAGGGGCTT (SEQ ID NO: 155), antisense GCCCCUGAAACGGUGUCCUTT (SEQ ID NO: 319) (sugars from the 5' end r19 d2, backbone not given here) | 1.11 | 0.15
RAG7-690: saRNA duplex; sense CCUAUGCAUCCUCAUCUAUTT (SEQ ID NO: 42), antisense AUAGAUGAGGAUGCAUAGGTT (SEQ ID NO: 206) (sugars from the 5' end r19 d2, backbone not given here) | 1.42 | 0.51
RAG7-710: saRNA duplex; sense GUUUUCUUCUCAGCCCAGGTT (SEQ ID NO: 122), antisense CCUGGGCUGAGAAGAAAACTT (SEQ ID NO: 286) (sugars from the 5' end r19 d2, backbone not given here) | 1.18 | 0.24
RAG7-684: saRNA duplex; sense CAUCCUCAUCUAUGCAGGGTT (SEQ ID NO: 47), antisense CCCUGCAUAGAUGAGGAUGTT (SEQ ID NO: 211) (sugars from the 5' end r19 d2, backbone not given here) | 1.39 | 0.47
RAG7-190: saRNA duplex; sense CCUUCUUGUCUCAAUUUGCTT (SEQ ID NO: 130), antisense GCAAAUUGAGACAAGAAGGTT (SEQ ID NO: 294) (sugars from the 5' end r19 d2, backbone not given here) | 1.16 | 0.22
RAG7-778: saRNA duplex; sense UGUAGCAUCGAGUGGUAUUTT (SEQ ID NO: 70), antisense AAUACCACUCGAUGCUACATT (SEQ ID NO: 234) (sugars from the 5' end r19 d2, backbone not given here) | 1.29 | 0.37
RAG7-691: saRNA duplex; sense UCCUAUGCAUCCUCAUCUATT (SEQ ID NO: 30), antisense UAGAUGAGGAUGCAUAGGATT (SEQ ID NO: 194) (sugars from the 5' end r19 d2, backbone not given here) | 1.50 | 0.58
RAG7-850: saRNA duplex; sense UUGAAAGGUUCCGAGGGGCTT (SEQ ID NO: 46), antisense GCCCCUCGGAACCUUUCAATT (SEQ ID NO: 210) (sugars from the 5' end r19 d2, backbone not given here) | 1.39 | 0.47
RAG7-44: saRNA duplex; sense CCAGUUCCGGGUUUGCACCTT (SEQ ID NO: 121), antisense GGUGCAAACCCGGAACUGGTT (SEQ ID NO: 285) (sugars from the 5' end r19 d2, backbone not given here) | 1.18 | 0.24
RAG7-198: saRNA duplex; sense UACAGGUGCCUUCUUGUCUTT (SEQ ID NO: 134), antisense AGACAAGAAGGCACCUGUATT (SEQ ID NO: 298) (sugars from the 5' end r19 d2, backbone not given here) | 1.16 | 0.21
RAG7-916: saRNA duplex; sense CUCUUCUUUGAAAGCUCAATT (SEQ ID NO: 33), antisense UUGAGCUUUCAAAGAAGAGTT (SEQ ID NO: 197) (sugars from the 5' end r19 d2, backbone not given here) | 1.48 | 0.56
RAG7-119: saRNA duplex; sense GAUCUCCUGGGAAGAAAGCTT (SEQ ID NO: 57), antisense GCUUUCUUCCCAGGAGAUCTT (SEQ ID NO: 221) (sugars from the 5' end r19 d2, backbone not given here) | 1.35 | 0.43
RAG7-914: saRNA duplex; sense CUUCUUUGAAAGCUCAAAGTT (SEQ ID NO: 143), antisense CUUUGAGCUUUCAAAGAAGTT (SEQ ID NO: 307) (sugars from the 5' end r19 d2, backbone not given here) | 1.14 | 0.19
RAG7-833: saRNA duplex; sense GCCAUUGAGGAAACUCCUCTT (SEQ ID NO: 138), antisense GAGGAGUUUCCUCAAUGGCTT (SEQ ID NO: 302) (sugars from the 5' end r19 d2, backbone not given here) | 1.14 | 0.20
RAG7-883: saRNA duplex; sense AGAAGUAAAGUGUUCUCGUTT (SEQ ID NO: 161), antisense ACGAGAACACUUUACUUCUTT (SEQ ID NO: 325) (sugars from the 5' end r19 d2, backbone not given here) | 1.11 | 0.14
RAG7-196: saRNA duplex; sense CAGGUGCCUUCUUGUCUCATT (SEQ ID NO: 38), antisense UGAGACAAGAAGGCACCUGTT (SEQ ID NO: 202) (sugars from the 5' end r19 d2, backbone not given here) | 1.45 | 0.54
RAG7-852: saRNA duplex; sense ACUUGAAAGGUUCCGAGGGTT (SEQ ID NO: 128), antisense CCCUCGGAACCUUUCAAGUTT (SEQ ID NO: 292) (sugars from the 5' end r19 d2, backbone not given here) | 1.17 | 0.22
RAG7-885: saRNA duplex; sense CCAGAAGUAAAGUGUUCUCTT (SEQ ID NO: 147), antisense GAGAACACUUUACUUCUGGTT (SEQ ID NO: 311) (sugars from the 5' end r19 d2, backbone not given here) | 1.14 | 0.18
RAG7-102: saRNA duplex; sense GCUUCCGAAAAGGACACCGTT (SEQ ID NO: 96), antisense CGGUGUCCUUUUCGGAAGCTT (SEQ ID NO: 260) (sugars from the 5' end r19 d2, backbone not given here) | 1.23 | 0.30
RAG7-149: saRNA duplex; sense GUUUUCUGCUUUUCCUGCUTT (SEQ ID NO: 99), antisense AGCAGGAAAAGCAGAAAACTT (SEQ ID NO: 263) (sugars from the 5' end r19 d2, backbone not given here) | 1.22 | 0.29
RAG7-145: saRNA duplex; sense UCUGCUUUUCCUGCUCUUUTT (SEQ ID NO: 9), antisense AAAGAGCAGGAAAAGCAGATT (SEQ ID NO: 173) (sugars from the 5' end r19 d2, backbone not given here) | 1.71 | 0.77
